Data as given in US6774235B2, “Trisubstituted 1,3,5-triazine derivatives” (Janssen Pharmaceutica N.V., priority 1998, dated 2004).
Where two headings read alike, the source gives them in different places.

Key:
HIV-1 (wildtype IIIB) = test: microbe, parasite or virus in culture; format: cell-based; conditions: dose achieving 50% protection of HIV-1 (IIIB) infected MT-4 cells, MTT, OD 540 nm
Experimental: (§1) A rapid, sensitive and automated assay procedure was used for the in vitro evaluation of anti-HIV agents. An HIV-1 (wildtype IIIB) transformed T4-cell line, MT-4, which was previously shown (Koyanagi et al., Int. J Cancer, 36, 445-451, 1985) to be highly susceptible to and permissive for HIV infection, served as the target cell line. Inhibition of the HIV-induced cytopathic effect was used as the end point. […] The percent protection achieved by the compound in HIV-infected cells was calculated by the following formula: [formula]
(§2) whereby (ODT)HIV is the optical density measured with a given concentration of the test compound in HIV-infected cells; (ODC)HIV is the optical density measured for the control untreated HIV-infected cells; (ODC)MOCK is the optical density measured for the control untreated mock-infected cells; all optical density values were determined at 540 nm. […] The ratio of CC50 to IC50 was defined as the selectivity index (SI).

MT-4 = test: Cytotoxicity in mock-infected MT-4 cells (MTT)
Experimental: as §1, §2

[1] = Cytotoxicity in mock-infected MT-4 cells (MTT); conditions: human, mock-infected MT-4 cells
Experimental: as §1, §2

[2] = concentration reducing absorbance of mock-infected MT-4 control by 50%, MTT

| Compound | IC50 (HIV-1 (wildtype IIIB)) [nM] | CC50 (MT-4) [nM] | IC50 (HIV-1 (wildtype IIIB); Human immunodeficiency virus 1, MT4) [nM] | CC50 [1] [nM] | CC50 (MT-4; [2]) [nM] |
| --- | --- | --- | --- | --- | --- |
| N#Cc1ccc(Nc2nc(N)nc(Oc3c(Cl)cccc3Cl)n2)cc1 [Compound 1] | 3 | > 20000 | – | – | – |
| Cc1ccc(C)c(Oc2nc(N)nc(Nc3ccc(C#N)cc3)n2)c1 [Compound 2, 4-[[4-amino-6-(2,5-dimethylphenoxy)-1,3,5-triazin-2-yl]amino]benzonitrile] | – | – | 3 | 34900 | – |
| N#Cc1ccc(Nc2nc(NO)nc(Nc3c(Cl)cccc3Cl)n2)cc1 [Compound 4, 4-[[[6-(2,6-dichlorophenylamino)-4-(hydroxylamino)]-1,3,5-triazin-2-yl]amino]-benzonitrile] | 2 | 8000 | – | – | – |
| Cc1cccc(C)c1Nc1nc(NO)nc(Nc2ccc(C#N)cc2)n1 [Compound 5] | 2 | 7800 | – | – | – |
| Cc1cccc(C(C)C)c1Nc1nc(N)nc(Nc2ccc(C#N)cc2)n1 [Compound 8] | 165 | 9300 | – | – | – |
| N#Cc1ccc(Nc2nc(N)nc(Nc3c(Cl)cccc3Cl)n2)cc1 [Compound 10] | 3 | 6100 | – | – | – |
| CCc1cccc(CC)c1Nc1nc(N)nc(Nc2ccc(C#N)cc2)n1 [Compound 12] | 21 | 30000 | – | – | – |
| CC(=O)c1ccc(C)cc1Nc1nc(N)nc(Nc2ccc(C#N)cc2)n1 [Compound 13] | 259 | > 100000 | – | – | – |
| Cc1cc(C)c(Nc2nc(N)nc(Nc3ccc(C#N)cc3)n2)c(C)c1Br [Compound 15] | 3 | 1700 | – | – | – |
| N#Cc1ccc(Nc2nc(N)nc(Nc3c(F)cc(F)cc3Br)n2)cc1 [Compound 17] | 3 | 53800 | – | – | – |
| N#Cc1ccc(Nc2nc(N)nc(Nc3c(Cl)cc(Cl)cc3Cl)n2)cc1 [Compound 18] | 8 | 45600 | – | – | – |
| N#Cc1ccc(Nc2nc(NO)nc(Sc3c(Cl)cccc3Cl)n2)cc1 [Compound 20] | 3 | 11700 | – | – | – |
| N#Cc1ccc(Nc2nc(N)nc(NNc3c(Cl)cc(Cl)cc3Cl)n2)cc1 [Compound 21] | 1 | 27800 | – | – | – |
| N#Cc1ccc(Nc2nc(N)nc(NNc3c(Cl)cccc3Cl)n2)cc1 [Compound 22] | 3 | > 100000 | – | – | – |
| Cc1ccc(Cl)c(C)c1Nc1nc(N)nc(Nc2ccc(C#N)cc2)n1 [Compound 28] | 5 | 42800 | – | – | – |
| N#Cc1ccc(Nc2nc(N)nc(Oc3c(Cl)cc(Cl)cc3Cl)n2)cc1 [Compound 30] | 2 | 63500 | – | – | – |
| Cc1ccc(Cl)c(C)c1Nc1nc(NO)nc(Nc2ccc(C#N)cc2)n1 [Compound 31] | 5 | 9900 | – | – | – |
| Cc1cc(Cl)cc(Cl)c1Oc1nc(N)nc(Nc2ccc(C#N)cc2)n1 [Compound 34] | 1 | 4800 | – | – | – |
| N#Cc1ccc(Nc2nc(N)nc(Oc3ccc(Cl)cc3Cl)n2)cc1 [Compound 38] | 7 | > 100000 | – | – | – |
| CC(=O)c1cc(Cl)cc(Cl)c1Oc1nc(N)nc(Nc2ccc(C#N)cc2)n1 [Compound 39] | > 10000 | < 10000 | – | – | – |
| N#Cc1ccc(Nc2nc(N)nc(Oc3c(Cl)c(Cl)c(Cl)c(Cl)c3Cl)n2)cc1 [Compound 42] | 33 | > 10000 | – | – | – |
| N#Cc1ccc(Nc2nc(N)nc(Oc3c(Cl)ccc(Cl)c3Cl)n2)cc1 [Compound 43] | 9 | 43900 | – | – | – |
| N#Cc1ccc(Nc2nc(N)nc(Oc3c(F)cc(F)cc3F)n2)cc1 [Compound 44] | 5 | > 100000 | – | – | – |
| N#Cc1ccc(Nc2nc(N)nc(Oc3c(Cl)cc(F)cc3Cl)n2)cc1 [Compound 45] | 7 | 52900 | – | – | – |
| COc1cccc(OC)c1Oc1nc(N)nc(Nc2ccc(C#N)cc2)n1 [Compound 46] | 31 | > 100000 | – | – | – |
| COc1cc(C#N)ccc1Oc1nc(N)nc(Nc2ccc(C#N)cc2)n1 [Compound 47] | 75 | > 100000 | – | – | – |

| Compound | IC50 (HIV-1 (wildtype IIIB)) [nM] | CC50 (MT-4) [nM] | IC50 (HIV-1 (wildtype IIIB); Human immunodeficiency virus 1, MT4) [nM] | CC50 [1] [nM] | CC50 (MT-4; [2]) [nM] |
| --- | --- | --- | --- | --- | --- |
| Cc1c(Cl)c(C)c(Br)c(Oc2nc(N)nc(Nc3ccc(C#N)cc3)n2)c1Br [Compound 48] | 19 | 8700 | – | – | – |
| CC(=O)c1cc(F)cc(F)c1Oc1nc(N)nc(Nc2ccc(C#N)cc2)n1 [Compound 49] | 76 | > 99900 | – | – | – |
| Cc1c(Br)c(C)c(Br)c(Oc2nc(N)nc(Nc3ccc(C#N)cc3)n2)c1Br [Compound 50] | 59 | 8100 | – | – | – |
| Cc1cc(Cl)c(C)c(C)c1Oc1nc(N)nc(Nc2ccc(C#N)cc2)n1 [Compound 52] | 3 | 1900 | – | – | – |
| Cc1c(C)c(Oc2nc(N)nc(Nc3ccc(C#N)cc3)n2)c(Cl)c(C)c1Cl [Compound 53] | 17 | 2500 | – | – | – |
| N#Cc1ccc(Nc2nc(N)nc(Sc3ccc(F)cc3Cl)n2)cc1 [Compound 55] | 4 | > 99900 | – | – | – |
| N#Cc1ccc(Nc2nc(N)nc(Sc3cc(Cl)c(Cl)cc3Cl)n2)cc1 [Compound 56] | 5 | 62600 | – | – | – |
| N#Cc1ccc(Nc2nc(N)nc(Sc3ccc(F)cc3F)n2)cc1 [Compound 57] | 15 | > 100000 | – | – | – |
| Cc1cc(C)c(Sc2nc(N)nc(Nc3ccc(C#N)cc3)n2)c(C)c1 [Compound 58] | 3 | 47100 | – | – | – |
| Cc1ccc(Sc2nc(N)nc(Nc3ccc(C#N)cc3)n2)c(C)c1 [Compound 59] | 2 | 48500 | – | – | – |
| Cc1cc(I)cc(C)c1Oc1nc(N)nc(Nc2ccc(C#N)cc2)n1 [Compound 60] | 3 | 45500 | – | – | – |
| Cc1cc(C)c(Nc2nc(N)nc(Nc3ccc(C#N)cc3)n2)c(C)c1N [Compound 61] | 5 | 94600 | – | – | – |
| Cc1ccc(Oc2nc(N)nc(Nc3ccc(C#N)cc3)n2)c(C)c1 [Compound 62] | 3 | 51600 | – | – | – |
| CCc1cc(Br)cc(CC)c1Nc1nc(N)nc(Nc2ccc(C#N)cc2)n1 [Compound 64] | 14 | 46500 | – | – | – |
| Cc1cc(Nc2nc(N)nc(Nc3ccc(C#N)cc3)n2)c(Cl)cc1F [Compound 66] | 96 | > 99900 | – | – | – |
| N#Cc1ccc(Nc2nc(N)nc(Nc3c(F)c(F)c(F)c(F)c3F)n2)cc1 [Compound 67] | 111 | 45600 | – | – | – |
| COc1cc(OC)c(Nc2nc(N)nc(Nc3ccc(C#N)cc3)n2)c(OC)c1 [Compound 68] | 15 | 63900 | – | – | – |
| Cc1cc(C)c(N=Nc2nc(N)nc(Nc3ccc(C#N)cc3)n2)c(C)c1 [Compound 69, 4-[[4-amino-6-[(2,4,6-trimethylphenyl)azo]-1,3,5-triazin-2-yl]aamino]benzonitrile] | 65 | – | – | – | > 99900 |
| N#Cc1ccc(Nc2nc(N)nc(Nc3c(Cl)cc(C(F)(F)F)cc3Cl)n2)cc1 [Compound 70] | 3 | 15600 | – | – | – |
| N#Cc1ccc(Nc2nc(N)nc(Nc3c(Br)cc(Br)cc3Br)n2)cc1 [Compound 72] | 2 | 6500 | – | – | – |
| Cc1cc(Br)c(Nc2nc(Nc3ccc(C#N)cc3)nc(Nc3ccc(C#N)cc3)n2)c(Br)c1 [Compound 74, N,-[6-[(2,6-dibromo-4-methylphenyl)amino]-1,3,5-triazine-2,4-diyl]bis[4-amino-benzonitrile]] | 190 | 7000 | – | – | – |
| CC(C)c1cc(Br)c(Nc2nc(Nc3ccc(C#N)cc3)nc(Nc3ccc(C#N)cc3)n2)c(Br)c1 [Compound 75] | 378 | 37800 | – | – | – |
| Cc1cc(N)cc(C)c1Oc1nc(N)nc(Nc2ccc(C#N)cc2)n1 [Compound 78] | 7830 | 47000 | – | – | – |
| N#Cc1ccc(Nc2nc(N)nc(Oc3c(F)c(F)c(O)c(F)c3F)n2)cc1 [Compound 80] | 85500 | – | – | – | > 85500 |
| Cc1c(Cl)cc(N)c(Oc2nc(N)nc(Nc3ccc(C#N)cc3)n2)c1Cl [Compound 81] | 2680 | > 99100 | – | – | – |
| COC(=O)c1cc(OC)c(OC)c(OC)c1Nc1nc(N)nc(Nc2ccc(C#N)cc2)n1 [Compound 82] | 1490 | 99600 | – | – | – |
